Test system: T1, D24 lipase
T1 construct: native extracellular lipase from culture supernatant, only partially purified (dialysed, 10 kDa cut-off concentrated)
Experiment: spectrophotometric p-nitrophenyl palmitate hydrolysis, Lineweaver-Burk
Type: biochemical, Naganishia albida
Settings: pH 5.6, 37 °C; partially purified native enzyme, free

- Km: 0.158 µM
SMILES: CCCCCCCCCCCCCCCC(=O)Oc1ccc([N+](=O)[O-])cc1 [p-nitrophenyl palmitate]
